Where two headings read alike, the source gives them in different places.
How the values were obtained:
[1] = test system: IL-15 induced P-STAT5 in human PBMC; experiment: PBMC IL-15 induced P-STAT5; assay type: cell-based; conditions: human PBMC, IL-15 stimulated, read-out: PBMC IL15-pSTAT5 IC50
Method: PBMC IL-15 Induced P-STAT5
Frozen human PBMC (200-250 million cells/vial) was thawed at 37° C. The cells were transferred to 10 mL warm medium in a 50-mL conical tube, and centrifuged at 1,200 RPM at room temperature for 5 min. The supernatant was aspirated. […] After adding 47 ml D-PBS (37° C.) to PBMC/FBS suspension, centrifuging at 1,200 RPM at room temperature for 5 min, and aspirating the supernatant, the cells were resuspended in 20 mL warm RPMI medium. Ninety μL of cell suspension were pipetted per well in a 96-well, deep-well, V-bottom plate, and the plate was incubated at 37° C. for 30 min. […] After adding 0.8 mL staining buffer per well, the plates were centrifuged at 1,200 RPM (Beckman GS-6R or Sorvall Legend) at room temperature for 5 min, and again the supernatant was aspirated using a 8-channel or 12-channel manifold. The plate was vortexed, and 0.35 mL 90% methanol/10% H2O (−20° C.) was added per well, and the plate incubated on ice for 20 min. After again adding 0.8 mL staining buffer per well, the plates were centrifuged at 1,200 RPM (Beckman GS-6R or Sorvall Legend) at room temperature for 5 min, and again the supernatant was aspirated using a 8-channel or 12-channel manifold, and then 0.8 mL Staining buffer was added per well. After once again adding 0.8 mL staining buffer per well, the plates were centrifuged at 1,200 RPM (Beckman GS-6R or Sorvall Legend) at room temperature for 5 min, and again the supernatant was aspirated using a 8-channel or 12-channel manifold. […] Samples of 250 μL/well were transferred to a 96-well U-bottom plate, and the FACS analysis was performed gating on total lymphocytes. Samples were analyzed using a BD Calibur™ or BD FACSCanto™ flow cytometer equipped with the BD High Throughput Sampler.

[2] = target: JAK3 enzyme (Homo sapiens (Human), UniProt P52333); experiment: JAK Caliper Enzyme Assay at 4 μM or 1 mM ATP; assay type: biochemical
[3] = read-out: JAK3 (4 μM ATP) IC50, 4 μM ATP
[4] = read-out: JAK3 (1 mM ATP) IC50, 1 mM ATP

Sequence of JAK3 enzyme (P52333 whole entry, species assumed): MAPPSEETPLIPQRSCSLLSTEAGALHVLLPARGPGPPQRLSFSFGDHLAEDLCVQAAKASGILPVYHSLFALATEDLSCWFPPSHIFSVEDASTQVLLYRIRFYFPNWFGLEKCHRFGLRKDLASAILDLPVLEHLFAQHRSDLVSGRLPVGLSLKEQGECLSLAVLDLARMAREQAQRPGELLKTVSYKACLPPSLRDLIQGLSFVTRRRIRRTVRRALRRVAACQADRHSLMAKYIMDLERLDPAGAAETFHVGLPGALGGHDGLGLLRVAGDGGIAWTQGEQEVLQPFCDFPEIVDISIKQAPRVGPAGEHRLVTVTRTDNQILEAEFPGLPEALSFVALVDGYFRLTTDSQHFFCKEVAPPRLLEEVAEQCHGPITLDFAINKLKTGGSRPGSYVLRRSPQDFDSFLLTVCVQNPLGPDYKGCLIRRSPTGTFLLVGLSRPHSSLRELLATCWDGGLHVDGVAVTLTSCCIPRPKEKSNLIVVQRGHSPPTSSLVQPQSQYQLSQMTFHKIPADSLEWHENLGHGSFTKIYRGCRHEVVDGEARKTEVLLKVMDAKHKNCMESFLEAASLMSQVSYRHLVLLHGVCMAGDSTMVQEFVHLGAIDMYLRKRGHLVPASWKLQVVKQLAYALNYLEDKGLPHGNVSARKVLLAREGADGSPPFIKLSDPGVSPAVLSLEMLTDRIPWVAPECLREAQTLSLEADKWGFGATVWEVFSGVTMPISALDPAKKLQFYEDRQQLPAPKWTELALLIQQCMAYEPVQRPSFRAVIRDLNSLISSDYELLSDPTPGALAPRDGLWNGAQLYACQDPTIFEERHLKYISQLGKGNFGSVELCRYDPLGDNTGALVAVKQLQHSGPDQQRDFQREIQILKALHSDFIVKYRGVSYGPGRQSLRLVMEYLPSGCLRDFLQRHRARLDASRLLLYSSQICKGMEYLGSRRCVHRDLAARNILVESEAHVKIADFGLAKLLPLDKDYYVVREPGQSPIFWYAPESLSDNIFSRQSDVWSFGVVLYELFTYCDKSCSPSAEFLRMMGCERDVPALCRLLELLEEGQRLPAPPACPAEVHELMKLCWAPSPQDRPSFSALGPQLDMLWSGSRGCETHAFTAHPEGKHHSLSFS

In the case of `C=CC(=O)N1CC[C@@H](O)[C@@H](Nc2ncnc3[nH]ccc23)C1` (racemic) [Example 64, 1-[(3S,4R)-4-Hydroxy-3-(7H-pyrrolo[2,3-d]pyrimidin-4-ylamino)piperidin-1-yl]prop-2-en-1-one], the IC50 [1] is reported as 4640 nM, the IC50 [2, 3] is reported as 5.3 nM and the IC50 [2, 4] is reported as 996 nM.
`C=CC(=O)N1CC[C@H](O)[C@@H](Nc2ncnc3[nH]ccc23)C1` (racemic) [Example 113, rac-1-[(3S,4S)-4-Hydroxy-3-(7H-pyrrolo[2,3-d]pyrimidin-4-ylamino)piperidin-1-yl]prop-2-en-1-one] was tested, and the IC50 [1] was greater than 10000 nM.
With `C=CC(=O)N1CCC[C@@H](Nc2ncnc3[nH]cc(-c4cnn(C)c4)c23)C1` [Example 28, 1-[(3R)-3-{[5-(1-methyl-1H-pyrazol-4-yl)-7H-pyrrolo[2,3-d]pyrimidin-4-yl]amino}piperidin-1-yl]prop-2-en-1-one] the IC50 [1] was greater than 10000 nM, the IC50 [2, 3] was 48.2 nM and the IC50 [2, 4] was 358 nM.
With `C=CC(=O)N1CCC[C@@H](Nc2ccnc3[nH]cc(C)c23)C1` [Example 47, 1-{(3R)-3-[(3-methyl-1H-pyrrolo[2,3-b]pyridin-4-yl)amino]piperidin-1-yl}prop-2-en-1-one] the IC50 [1] was 1080 nM, the IC50 [2, 3] was 4 nM and the IC50 [2, 4] was 608 nM.
With `C=CC(=O)N1CC[C@@H]2CCN(c3ncnc4[nH]ccc34)[C@H]2C1` [Example 49, 1-[(3aS,7aR)-1-(7H-Pyrrolo[2,3-d]pyrimidin-4-yl)octahydro-6H-pyrrolo[2,3-c]pyridin-6-yl]prop-2-en-1-one] the IC50 [1] was 355 nM.
Compound `C=CC(=O)N1CC(Nc2ncnc3[nH]ccc23)CCC1CO` (stereo not drawn) [Example 52, 1-[2-(Hydroxymethyl)-5-(7H-pyrrolo[2,3-d]pyrimidin-4-ylamino)piperidin-1-yl]prop-2-en-1-one] has an IC50 [1] greater than 354 nM.
In the case of `C=CC(=O)N1CCCC(C)(Nc2ncnc3[nH]ccc23)C1` (stereo not drawn) [Example 71, 1-(3-((7H-Pyrrolo[2,3-d]pyrimidin-4-yl)amino)-3-methylpiperidin-1-yl)prop-2-en-1-one], the IC50 ([1]; Homo sapiens, PBMC) is reported as greater than 10000 nM.
In the case of `C=CC(=O)N1CCC[C@@](C)(Nc2ncnc3[nH]ccc23)C1` [Example 72, (R)-1-(3-((7H-pyrrolo[2,3-d]pyrimidin-4-yl)amino)-3-methylpiperidin-1-yl)prop-2-en-1-one], the IC50 ([1]; Homo sapiens, PBMC) is reported as greater than 10000 nM.
In the case of `C=CC(=O)N1CC[C@H]2CCN(c3ncnc4[nH]ccc34)[C@H]2C1` [Example 76, 1-[(3aR,7aR)-1-(7H-Pyrrolo[2,3-d]pyrimidin-4-yl)octahydro-6H-pyrrolo[2,3-c]pyridin-6-yl]prop-2-en-1-one], the IC50 [1] is reported as greater than 6080 nM.
In the case of `O=C(/C=C/C(F)(F)F)N1CC[C@@H]2CCN(c3ncnc4[nH]ccc34)[C@@H]2C1` [Example 81, (2E)-4,4,4-trifluoro-1-[(3aS,7aS)-1-(7H-pyrrolo[2,3-d]pyrimidin-4-yl)octahydro-6H-pyrrolo[2,3-c]pyridin-6-yl]but-2-en-1-one], the IC50 ([1]; Homo sapiens, PBMC) is reported as greater than 4000 nM.
Compound `C=CC(=O)N1CC[C@@H]2OCCN(c3ncnc4[nH]ccc34)[C@@H]2C1` [Example 90, 1-[(4aR,8aS)-4-(7H-Pyrrolo[2,3-d]pyrimidin-4-yl)hexahydro-2H-pyrido[4,3-b][1,4]oxazin-6 (5H)-yl]prop-2-en-1-one] has an IC50 ([1]; Homo sapiens, PBMC) greater than 10000 nM.
Work on `C=C(CN(C)C)C(=O)N1CCC[C@@H](Nc2ncnc3[nH]ccc23)C1` [Example 92, 2-[(dimethylamino)methyl]-1-[(3R)-3-(7H-pyrrolo[2,3-d]pyrimidin-4-ylamino)piperidin-1-yl]prop-2-en-1-one] yielded an IC50 [1] greater than 10000 nM.
`C=CC(=O)N1CC[C@@H]2OCCN(c3ncnc4[nH]ccc34)[C@H]2C1` [Example 119, 1-[(4aS,8aS)-4-(7H-Pyrrolo[2,3-d]pyrimidin-4-yl)hexahydro-2H-pyrido[4,3-b][1,4]oxazin-6 (5H)-yl]prop-2-en-1-one] was tested, and the IC50 [1] was greater than 10000 nM.
`C=CC(=O)N1CCN(c2cnc3[nH]cc(C(=O)NC(C)C)c3n2)C[C@H]1CC` [Example 311, 2-[(3R)-4-acryloyl-3-ethylpiperazin-1-yl]-N-(propan-2-yl)-5H-pyrrolo[2,3-b]pyrazine-7-carboxamide] showed an IC50 [2, 3] of 1.2 nM and an IC50 [2, 4] of 200 nM.
`C=CC(=O)N1CCN(c2cnc3[nH]cc(C(=O)NC(C)C)c3n2)C(C)(C)C1` [Example 312, 2-(4-acryloyl-2,2-dimethylpiperazin-1-yl)-N-(propan-2-yl)-5H-pyrrolo[2,3-b]pyrazine-7-carboxamide] showed an IC50 [2, 3] of 4.5 nM and an IC50 [2, 4] of 592 nM.
With `C=CC(=O)N1CCN(c2cnc3[nH]cc(C(=O)NC(C)C)c3n2)C2(CC2)C1` [Example 313, 2-(7-acryloyl-4,7-diazaspiro[2.5]oct-4-yl)-N-(propan-2-yl)-5H-pyrrolo[2,3-b]pyrazine-7-carboxamide] the IC50 [2, 3] was 1.4 nM and the IC50 [2, 4] was 183 nM.
Compound `C=CC(=O)N1CCN(c2cnc3[nH]cc(C(=O)NC(C)C)c3n2)[C@@H](C2CC2)C1` [Example 314, 2-[(2S)-4-acryloyl-2-cyclopropylpiperazin-1-yl]-N-(propan-2-yl)-5H-pyrrolo[2,3-b]pyrazine-7-carboxamide] has an IC50 [2, 3] of 5 nM and an IC50 [2, 4] of 662 nM.
`C=CC(=O)N1CC[C@H](Nc2cnc3[nH]cc(C(=O)NC(C)C)c3n2)[C@H](OC)C1` [Example 317, 2-{[(3R,4S)-1-acryloyl-3-methoxypiperidin-4-yl]amino}-N-(propan-2-yl)-5H-pyrrolo[2,3-b]pyrazine-7-carboxamide] showed an IC50 [2, 3] of 0.5 nM and an IC50 [2, 4] of 44.6 nM.
Compound `C=CC(=O)N1CCC(C)(Nc2cnc3[nH]cc(C(=O)NC(C)C)c3n2)CC1` [Example 318, 2-[(1-acryloyl-4-methylpiperidin-4-yl)amino]-N-(propan-2-yl)-5H-pyrrolo[2,3-b]pyrazine-7-carboxamide] has an IC50 [2, 3] of 0.3 nM and an IC50 [2, 4] of 21.3 nM.
`C=CC(=O)N1CC[C@@H](Nc2cnc3[nH]cc(C(=O)NC(C)C)c3n2)[C@@H](F)C1` [Example 320, 2-{[(3S,4R)-1-acryloyl-3-fluoropiperidin-4-yl]amino}-N-(propan-2-yl)-5H-pyrrolo[2,3-b]pyrazine-7-carboxamide] gave an IC50 [2, 3] of 0.4 nM and an IC50 [2, 4] of 10.7 nM.
In the case of `C=CC(=O)N1CCN(c2cnc3[nH]cc(C(=O)NC(C)C)c3n2)[C@H](CC)C1` [Example 321, 2-[(2R)-4-acryloyl-2-ethylpiperazin-1-yl]-N-(propan-2-yl)-5H-pyrrolo[2,3-b]pyrazine-7-carboxamide], the IC50 [2, 3] is reported as 0.9 nM and the IC50 [2, 4] is reported as 144 nM.
`C=CC(=O)N1CC2(C1)CN(c1cnc3[nH]cc(C(=O)NC(C)C)c3n1)C2C` (stereo not drawn) [Example 322, 2-(6-acryloyl-1-methyl-2,6-diazaspiro[3.3]hept-2-yl)-N-(propan-2-yl)-5H-pyrrolo[2,3-b]pyrazine-7-carboxamide] gave an IC50 [2, 3] of 29.4 nM and an IC50 [2, 4] of 3440 nM.
`C=CC(=O)N1CCN(c2cnc3[nH]cc(C(=O)NC(C)C)c3n2)[C@@H](C(C)C)C1` [Example 323, 2-[(2S)-4-acryloyl-2-(propan-2-yl)piperazin-1-yl]-N-(propan-2-yl)-5H-pyrrolo[2,3-b]pyrazine-7-carboxamide] was tested, and the IC50 [2, 3] was 11.9 nM and the IC50 [2, 4] was 886 nM.
Compound `C=CC(=O)N1CC2COCC(C1)N2c1cnc2[nH]cc(C(=O)NC(C)C)c2n1` [Example 324, 2-(7-acryloyl-3-oxa-7,9-diazabicyclo[3.3.1]non-9-yl)-N-(propan-2-yl)-5H-pyrrolo[2,3-b]pyrazine-7-carboxamide] has an IC50 [2, 3] of 37.5 nM and an IC50 [2, 4] of 3100 nM.
Work on `C=CC(=O)N1CCN(c2cnc3[nH]cc(C(=O)NC(C)C)c3n2)[C@@H](CC)C1` [Example 325, 2-[(2S)-4-acryloyl-2-ethylpiperazin-1-yl]-N-(propan-2-yl)-5H-pyrrolo[2,3-b]pyrazine-7-carboxamide] yielded an IC50 [2, 3] of 5 nM and an IC50 [2, 4] of 480 nM.
`C=CC(=O)N1C[C@@H](C)N(c2cnc3[nH]cc(C(=O)NC(C)C)c3n2)[C@@H](C)C1` [Example 328, 2-[(2R,6S)-4-acryloyl-2,6-dimethylpiperazin-1-yl]-N-(propan-2-yl)-5H-pyrrolo[2,3-b]pyrazine-7-carboxamide] gave an IC50 [2, 3] of 1.6 nM and an IC50 [2, 4] of 222 nM.
Work on `C=CC(=O)N1CC(Nc2cnc3[nH]ccc3n2)C1` [Example 337, 1-(3-((5H-Pyrrolo[2,3-b]pyrazin-2-yl)amino)azetidin-1-yl)prop-2-en-1-one] yielded an IC50 [2, 3] of 1.1 nM and an IC50 [2, 4] of 95.6 nM.
With `C=CC(=O)N1CCC(Oc2cnc3[nH]cc(C(=O)NC(C)C)c3n2)CC1` [Example 339, 2-((1-Acryloylpiperidin-4-yl)oxy)-N-isopropyl-5H-pyrrolo[2,3-b]pyrazine-7-carboxamide] the IC50 [2, 3] was 0.2 nM and the IC50 [2, 4] was 17.5 nM.
With `C#CCNC(=O)c1c[nH]c2ncc(NC3CCN(C(=O)C=C)CC3)nc12` [Example 343, 2-((1-Acryloylpiperidin-4-yl)amino)-N-(prop-2-yn-1-yl)-5H-pyrrolo[2,3-b]pyrazine-7-carboxamide] the IC50 [2, 3] was 0.1 nM and the IC50 [2, 4] was 3.4 nM.
